target: T1, human LMPTP-A (Homo sapiens, UniProt P24666); assay: Enzyme Assay of Inhibition of LMPTP-A (phosphatase assay, OMFP or pNPP substrate); type: biochemical; conditions: Bis-Tris pH 6.0, 37° C.
T1 sequence (P24666 1-158): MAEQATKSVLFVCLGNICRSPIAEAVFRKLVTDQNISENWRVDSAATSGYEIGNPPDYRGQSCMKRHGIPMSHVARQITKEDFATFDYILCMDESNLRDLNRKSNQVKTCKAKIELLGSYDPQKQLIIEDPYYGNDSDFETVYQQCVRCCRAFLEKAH
Protocol: Phosphatase assays were performed in buffer containing 50 mM Bis-Tris, pH 6.0, 1 mM DTT and 0.01% Triton X-100 at 37° C. For assays conducted with 3-O-methylfluorescein phosphate (OMFP) as substrate, fluorescence was monitored continuously at λex=485 and λem=525 nm. For assays conducted with para-nitrophenylphosphate (pNPP) as substrate, the reaction was stopped by addition of 2× reaction volume of 1 M NaOH, and absorbance was measured at 405 nm. IC50 values of compounds of Formula (I), (II), (III), or (IV) were determined from plots of inhibitor concentration versus percentage of enzyme activity. For inhibitor selectivity assays, each PTP was incubated with either 0.4 mM OMFP or 5 mM pNPP in the presence of 40 μM compound or DMSO. […] For the inhibitor reversibility assay, 50 nM human LMPTP-A was pre-incubated with 10 μM of compound of Formula (I), (II), (III), or (IV) or DMSO for 5 min. The enzyme was diluted 100× in phosphatase assay buffer containing 0.4 mM OMFP and fluorescence was measured at the indicated time points.

| IC50 | SMILES |
| --- | --- |
| ≤ 1000 nM | CN1CCCN(CCNC(=O)/C=C/c2ccc(-c3cc(NCCCN4CCCCC4)c4cnccc4n3)cc2)CC1 [(E)-N-(2-(4-Methyl-1,4-diazepan-1-yl)ethyl)-3-(4-(4-(3-(piperidin-1-yl)propylamino)-1,6-naphthyridin-2-yl)phenyl)acrylamide] |
| 1000 to 20000 nM | Cn1c(C(N)=O)cc2nc(-c3cc(NCCCN4CCCCC4)c4cnccc4n3)ccc21 [1-methyl-5-(4-((3-(piperidin-1-yl)propyl)amino)-1,6-naphthyridin-2-yl)-1H-pyrrolo[3,2-b]pyridine-2-carboxamide] |
| 1000 to 20000 nM | CCN(CC)C(=O)c1ccc(-c2cc(NCCN(C)C)c3cnccc3n2)cc1 [4-(4-((2-(Dimethylamino)ethyl)amino)-1,6-naphthyridin-2-yl)-N,N-diethylbenzamide] |
| 1000 to 20000 nM | CN1CCC(N/C(=N\O)c2ccc(-c3cc(NCCCN4CCCCC4)c4cnccc4n3)cc2)CC1 |
| 1000 to 20000 nM | O=C(NCCCN1CCCCC1)c1cc2ccc(-c3cc(NCCCN4CCCCC4)c4cnccc4n3)cc2[nH]1 [N-(3-(Piperidin-1-yl)propyl)-6-(4-(3-(piperidin-1-yl)propylamino)-1,6-naphthyridin-2-yl)-1H-indole-2-carboxamide] |
| 1000 to 20000 nM | O=C(NCCCN1CCCCC1)c1ccc(-c2cc(NC3CCOCC3)c3cnccc3n2)cc1 [N-(3-(Piperidin-1-yl)propyl)-4-(4-((tetrahydro-2H-pyran-4-yl)amino)-1,6-naphthyridin-2-yl)benzamide] |
| 1000 to 20000 nM | N#Cc1c(-c2cc(NCCCN3CCCCC3)c3cnccc3n2)ccc2[nH]c(C(=O)NC3CCNCC3)nc12 [4-cyano-5-(4-((3-(piperidin-1-yl)propyl)amino)-1,6-naphthyridin-2-yl)-N-(piperidin-4-yl)-1H-benzo[d]imidazole-2-carboxamide] |
| ≤ 1000 nM | CN(C)CCNC(=O)c1cc2cc(-c3cc(NCCCN4CCCCC4)c4cnccc4n3)ccc2n1C [N-(2-(dimethylamino)ethyl)-1-methyl-5-(4-((3-(piperidin-1-yl)propyl)amino)-1,6-naphthyridin-2-yl)-1H-indole-2-carboxamide] |
| ≥ 20000 nM | Cc1cncc2c(NCCCN3CCCCC3)cc(-c3ccc(C(=O)NCCCN4CCCCC4)cc3)nc12 [4-(8-Methyl-4-((3-(piperidin-1-yl)propyl)amino)-1,6-naphthyridin-2-yl)-N-(3-(piperidin-1-yl)propyl)benzamide] |
| 1000 to 20000 nM | CN1CCC(NC(=O)c2cc3ccc(-c4cc(NCCCN5CCCCC5)c5cnccc5n4)cc3[nH]2)CC1 [N-(1-Methylpiperidin-4-yl)-6-(4-(3-(piperidin-1-yl)propylamino)-1,6-naphthyridin-2-yl)-1H-indole-2-carboxamide] |
| ≤ 1000 nM | CCCNc1cc(-c2ccc3c(c2)cc(C(=O)NC2CCN(C)CC2)n3C)nc2ccncc12 [1-methyl-N-(1-methylpiperidin-4-yl)-5-(4-(propylamino)-1,6-naphthyridin-2-yl)-1H-indole-2-carboxamide] |
| ≤ 1000 nM | CN1CCN(C(=O)c2cc3cc(-c4cc(NCc5ccc(CN6CCCCC6)cc5)c5cnccc5n4)ccc3n2C)CC1 [(1-methyl-5-(4-(4-(piperidin-1-ylmethyl)benzylamino)-1,6-naphthyridin-2-yl)-1H-indol-2-yl)(4-methylpiperazin-1-yl)methanone] |
| ≤ 1000 nM | CN1CCC(CNC(=O)/C=C/c2ccc(-c3cc(NCCCN4CCCCC4)c4cnccc4n3)cc2)CC1 [(E)-N-((1-Methylpiperidin-4-yl)methyl)-3-(4-(4-(3-(piperidin-1-yl)propylamino)-1,6-naphthyridin-2-yl)phenyl)acrylamide] |
| 1000 to 20000 nM | COC(=O)c1ccc(-c2cc(NCCCN3CCCCC3)c3cnccc3n2)c(C(N)=O)c1 [methyl 3-carbamoyl-4-(4-((3-(piperidin-1-yl)propyl)amino)-1,6-naphthyridin-2-yl)benzoate] |
| ≤ 1000 nM | CCN(CC)C(=O)CNC(=O)CCc1ccc(-c2cc(NCCCN3CCCCC3)c3cnccc3n2)cc1 |
| ≤ 1000 nM | Cn1c(C(=O)NC2CCS(=O)(=O)CC2)cc2cc(-c3cc(NCCCN4CCCCC4)c4cnccc4n3)ccc21 [N-(1,1-dioxidotetrahydro-2H-thiopyran-4-yl)-1-methyl-5-(4-((3-(piperidin-1-yl)propyl)amino)-1,6-naphthyridin-2-yl)-1H-indole-2-carboxamide] |
| ≤ 1000 nM | CCN1CCN(C(=O)c2nc3cc(-c4cc(NCCCN5CCCCC5)c5cnccc5n4)ccc3[nH]2)CC1 [(4-ethylpiperazin-1-yl)(5-(4-((3-(piperidin-1-yl)propyl)amino)-1,6-naphthyridin-2-yl)-1H-benzo[d]imidazol-2-yl)methanone] |
| 1000 to 20000 nM | CCN(CC)C(=O)c1ccc(-c2cc(Nc3ccc(N(C)C)cc3)c3cnccc3n2)cc1 [4-(4-(4-(Dimethylamino)phenylamino)-1,6-naphthyridin-2-yl)-N,N-diethylbenzamide] |
| ≤ 1000 nM | CN(C)CCNC(=O)/C=C/c1ccc(-c2cc(NCCCN3CCCCC3)c3cnccc3n2)cc1 [(E)-N-(2-(Dimethylamino)ethyl)-3-(4-(4-(3-(piperidin-1-yl)propylamino)-1,6-naphthyridin-2-yl)phenyl)acrylamide] |
| ≤ 1000 nM | CN1CCC(NC(=O)c2cc3cc(-c4cc(NCCCN5CCCCC5)c5cnccc5n4)ccc3n2C)CC1 [1-methyl-N-(1-methylpiperidin-4-yl)-5-(4-((3-(piperidin-1-yl)propyl)amino)-1,6-naphthyridin-2-yl)-1H-indole-2-carboxamide] |
| ≥ 20000 nM | CCN1CCC(CNC(=O)CCOc2ccc(-c3cc(NCCCN4CCCCC4)c4cnccc4n3)cc2)CC1 [N-((1-ethylpiperidin-4-yl)methyl)-3-(4-(4-((3-(piperidin-1-yl)propyl)amino)-1,6-naphthyridin-2-yl)phenoxy)propanamide] |
| ≤ 1000 nM | CN1CCC(NC(=O)c2nc3cc(-c4cc(NCCCN5CCCCC5)c5cnccc5n4)cnc3[nH]2)CC1 [N-(1-Methylpiperidin-4-yl)-6-(4-(3-(piperidin-1-yl)propylamino)-1,6-naphthyridin-2-yl)-3H-imidazo[4,5-b]pyridine-2-carboxamide] |
| ≤ 1000 nM | CCN1CCN(C(=O)c2nc3cc(-c4cc(NCCCN5CCCCC5)c5cnccc5n4)ccc3n2CC)CC1 [(1-ethyl-5-(4-((3-(piperidin-1-yl)propyl)amino)-1,6-naphthyridin-2-yl)-1H-benzo[d]imidazol-2-yl)(4-ethylpiperazin-1-yl)methanone] |
| ≤ 1000 nM | CN1CCN(C(=O)c2cc3ccc(-c4cc(NCCCN5CCCCC5)c5cnccc5n4)cc3s2)CC1 [(4-methylpiperazin-1-yl)(6-(4-(3-(piperidin-1-yl)propylamino)-1,6-naphthyridin-2-yl)benzo[b]thiophen-2-yl)methanone] |
| 1000 to 20000 nM | O=C(NCCCN1CCCCC1)c1cc2cc(-c3cc(NCCCN4CCCCC4)c4cnccc4n3)ccc2s1 [N-(3-(piperidin-1-yl)propyl)-5-(4-(3-(piperidin-1-yl)propylamino)-1,6-naphthyridin-2-yl)benzo[b]thiophene-2-carboxamide] |
| 1000 to 20000 nM | CCN(CC)C(=O)c1ccc(-c2cc(NCCN3CCNCC3)c3cnccc3n2)cc1 [N,N-diethyl-4-(4-(2-(piperazin-1-yl)ethylamino)-1,6-naphthyridin-2-yl)benzamide] |
| ≥ 20000 nM | CCN(CC)C(=O)CCOc1ccc(-c2cc(NCCCN3CCCCC3)c3cnccc3n2)cc1 [N,N-diethyl-3-(4-(4-((3-(piperidin-1-yl)propyl)amino)-1,6-naphthyridin-2-yl)phenoxy)propanamide] |

From patent US11731986B2 (Sanford Burnham Prebys Medical Discovery Institute, priority 2017, dated 2023)
